Results as given in patent US20230087609A1, “USE OF A SOLUBLE GUANYLATE CYCLASE (sGC) STIMULATOR OR OF A COMBINATION OF A sGC STIMULATOR AND AN sGC ACTIVATOR FOR CONDITIONS WHEREIN THE HEME GROUP OF sGC IS OXIDIZED OR WHEREIN sGC IS DEFICIENT IN HEME” (Universiteit Maastricht, priority 2020, published 2023).

What was measured:
[1] = tested on: isolated rat mesenteric arteries; experiment: Relaxation of isolated rat mesenteric arteries (myograph)
From the text: The animals were killed humanely via CO2 inhalation (95% CO2, 5% O2) followed by cervical dislocation and exsanguination. The required tissues were dissected and placed in ice-cold oxygenated Krebs' solution (composition in mM: NaCl 119, KCl 4.7, MgSO4 1.17, NaHCO3 25, KH2PO4 1.18, CaCl2 2.5, glucose 5.5, EDTA 0.026, pH 7.4). The collected arteries were carefully freed of fat and connective tissue and cut into 2 mm rings.
The segments were then mounted in a small vessel myograph for the measurement of changes in isometric tension. Two 40 μm stainless steel wires were inserted through the lumen of the segment, one attached to an isometric force transducer and the other to a support driven by a micrometer. The vessels were maintained in Krebs' solution at 37° C. in 7 ml myograph chambers and were continuously bubbled with carbogen (95% O2, 5% CO2). Arteries were allowed to equilibrate for a 30 min period under zero force after which their internal diameter was normalised to an equivalent transmural pressure of 100 mmHg. Changes in isometric tension were reordered using a Myograph Interface Model 610 M version 2.2 (AD Instruments, Pty Ltd) and a chart recorder (Yokogawa, Japan), or using a MacLab® (MacLab® data-acquisition system, AD Instruments Pty Ltd.), interfaced with a Macintosh Computer. Following the 30 min equilibration period at optimal resting tension, the vessels were contracted maximally using a potassium depolarising KPSS solution (composition in mM: KCl 123, MgSO4 1.17, KH2PO4 2.37, CaCl2 2.5, glucose, 5.5 and EDTA 0.026). After the maximum contraction reached a plateau, the vessels were washed thoroughly using Krebs' solution and the tension allowed to return to the baseline. The vessels were then pre-contracted to ≈50% maximum contraction using titrated concentration of the thromboxane A2 mimetic U46619 (0.1-100 nM) and a titrated concentration of the al agonist cirazoline (1-100 nM). Subsequently, cumulative (0.5 log unit) concentration response curve to BAY 58-2667 (1 pM-0.1 μM) were constructed in the presence and absence of 100nM BAY 41-2272 (100 nM). All treatments used in our study including the pre-incubation with 10 μM ODQ for 30 min were added before the 50% pre-contraction with cirazoline and U46619 and only one concentration response curve to any vasodilator was constructed in each segment of the blood vessel. At the completion of each concentration response curve, maximal relaxation was achieved by adding nifedipine 10 μM.
Results are expressed as mean±s.e.m, with n representing the number of samples used from separate subjects. Statistical significance was accepted at the P<0.05 level. Relaxation responses to BAY58-2667 were expressed as a percentage reversal of the level of pre-contraction to U46619, with the response to nifedipine 10 μM defined as 100% relaxation. The individual response curves obtained for each vasodilator were fitted using non-linear regressions (Graphpad Prism®, version 5). In-vitro experiments have been performed with n=3 and n=1. Maximal relaxation values (%) at specific concentrations of the compounds were compared. For multiple comparisons, student's t-test or one-way analysis of variance (ANOVA) was followed by Bonferroni's test. • The results of our experiments are represented by the following non-limiting examples.

[2] = tested on: Human Brain Microvascular Endothelial Cells (HBMECs); experiment: Cell viability (MTT) of HBMEC subjected to hypoxia; type: cell-based; conditions: 1 μM; 6 h hypoxia, 24 h reperfusion; versus non-treated cells (FIG. 9)
Method: HBMEC (Cell systems, USA) between passage 3 and 9 were cultured to approximately 95% confluence using specialized cell medium (EGM-2 MV BulletKit, Lonza, The Netherlands) enriched with 5% fetal bovine serum before starting the hypoxia period. For hypoxia studies, HBMECs were seeded at specific density (6×10^4 cells/ml) in 12 wells-plate and incubated during 24 h at 37° C. Then, cell medium was replaced with non-FBS containing medium following by 6 h of hypoxia (94.8% N2, 0.2% O2 and 5% CO2) at 37° C. using hypoxia workstations (Ruskin Invivo2 400 station, The Netherlands). The hypoxia period was followed by 24 h of reperfusion in the presence or absence of 1 μM BAY 41-2272. Control cells were exposed to normoxia (75% N2, 20% O2 and 5% CO2) and enriched medium during the hypoxia period.
After 24 h of re-oxygenation period, cell viability was assessed using the colorimetric MTT assay. MTT solution (5 mg/ml) was added to each well (100 μl/ml) and incubated for 2 h at 37° C. The formazan salt formed was solubilized by adding 350 μl/well DMSO. The optical density was measured spectrophotometrically at 540 nm using a micro plate reader. Absorbance values obtained in control cells were set to 100% viability.

## Nc1nc(-c2nn(Cc3ccccc3F)c3ncccc23)ncc1C1CC1 [BAY 41-2272, 5-cyclopropyl-2-[1-(2-fluoro-benzyl)-1H-pyrazolo[3,4-b]pyridin-3-yl]-pyrimidin-4-ylamine]
[1]; 0.1 μM BAY 41-2272 alone, pre-contraction with U46619
  relaxation, compound alone: no relaxation
[1]; nano-molar range
  effect on Bay 58-2667 relaxation: augmented
  effect on DEA/NO (NO donor) relaxation: augmented
[2]
  cell viability: significantly increased cell viability
